Results taken from US20110207609A1, “Piperazine Compounds With Herbicidal Effect” (BASF SE, priority 2008, published 2011).

How the values were obtained:
APESV = assay: greenhouse test, pre-emergence treatment; type: in vivo, Apera spica-venti
Protocol: (§1) The culture containers used were plastic flowerpots containing loamy sand with approximately 5.8% of humus as the substrate. The seeds of the test plants were sown separately for each species.
(§2) The containers were irrigated gently to promote germination and growth and subsequently covered with transparent plastic hoods until the plants had rooted.
(§3) Depending on the species, the plants were kept at 10-25° C. or 20-35° C. The test period extended over 1 to 4 weeks. During this time, the plants were tended, and their response to the individual treatments was evaluated.
(§4) Evaluation was carried out using a scale from 0 to 100. 100 means no emergence of the plants, or complete destruction of at least the aerial moieties, and 0 means no damage, or normal course of growth. A good herbicidal activity is given at values of at least 70 and a very good herbicidal activity is given at values of at least 85.

SETFA = assay: greenhouse test, pre-emergence treatment; type: in vivo, Setaria faberi; conditions: comparative experiment, 0.5 kg/ha
Protocol: as §1, §2, §3, §4

ECHCG = assay: greenhouse test, post-emergence treatment; type: in vivo, Echinochloa crus-galli; conditions: 1.0 kg/ha, scale 0 to 100
Excerpt: as §1
(§5) For the post-emergence treatment, the test plants were first grown to a height of 1.5 to 15 cm, depending on the plant habit, and then treated with the active compounds which had been suspended or emulsified in water. For this purpose, the test plants were either sown directly and grown in the same containers, or they were first grown separately as seedlings and transplanted into the test containers a few days prior to treatment.
as §3, §4

AMARE = assay: greenhouse test, post-emergence treatment; type: in vivo, Amaranthus retroflexus; conditions: 0.5 kg/ha, scale 0 to 100
Excerpt: as §1, §5, §3, §4

GALAP = assay: greenhouse test, post-emergence treatment; type: in vivo, Galium aparine; conditions: 0.5 kg/ha, scale 0 to 100
Excerpt: as §1, §5, §3, §4

SETVI = assay: greenhouse test, pre-emergence treatment; type: in vivo, Setaria viridis; conditions: 1.0 kg/ha, scale 0 to 100
Excerpt: as §1
(§6) For the pre-emergence treatment, the active compounds, which had been suspended or emulsified in water, were applied directly after sowing by means of finely distributing nozzles. The containers were irrigated gently to promote germination and growth and subsequently covered with transparent plastic hoods until the plants had rooted. This cover caused uniform germination of the test plants, unless this has been impaired by the active compounds.
as §3, §4

CHEAL = assay: greenhouse test, post-emergence treatment; type: in vivo, Chenopodium album; conditions: 1.0 kg/ha, scale 0 to 100
Excerpt: as §1, §5, §3, §4

MATIN [1] = assay: greenhouse test, pre-emergence treatment; type: in vivo, Matricaria inodora; conditions: 2.0 kg/ha, scale 0 to 100
Excerpt: as §1, §6, §3, §4

MATIN [2] = assay: greenhouse test, post-emergence treatment; type: in vivo, Matricaria inodora; conditions: 2.0 kg/ha, scale 0 to 100
Excerpt: as §1, §5, §3, §4

AGSST = assay: greenhouse test, post-emergence treatment; type: in vivo, Agrostis alba; conditions: 2.0 kg/ha, scale 0 to 100
Excerpt: as §1, §5, §3, §4

[3] = comparative experiment, 0.5 kg/ha

Compound: CN1C(=O)C(Cc2cscc2C(F)(F)F)N(C)C(=O)C1Cc1ccccc1 (centres unmarked) [Ex. I.236.1, reference compound]
- herbicidal activity (APESV; [3]): 20%

Compound: CN1C(=O)C(C)(Cc2ccccc2)N(C)C(=O)C1Cc1cscc1C(F)(F)F (centres unmarked) [II-21]
- herbicidal activity (APESV; [3]): 98%
- herbicidal activity (SETFA): 95%

Compound: CN1C(=O)C(=Cc2cn(C)c3cccc([N+](=O)[O-])c23)NC(=O)C1(C)Cc1ccccc1 (racemic) [I-18]
- herbicidal activity (ECHCG): good (A good herbicidal activity is given at values of at least 70)

Compound: Cc1ncn(C)c1C=C1C(=O)N(C)C(C)(Cc2ccccc2)C(=O)N1C (racemic) [I-38]
- herbicidal activity (AMARE): good (A good herbicidal activity is given at values of at least 70)
- herbicidal activity (GALAP): very good (a very good herbicidal activity is given at values of at least 85)

Compound: CN1C(=O)C(C)(Cc2ccccc2)N(C)C(=O)C1=Cc1cnn2cccnc12 (racemic) [I-61]
- herbicidal activity (APESV; 1.0 kg/ha, scale 0 to 100): good (A good herbicidal activity is given at values of at least 70)

Compound: CN1C(=O)C(C)(Cc2ccccc2)N(C)C(=O)C1=Cc1cc(Cl)sc1Cl (racemic) [I-56]
- herbicidal activity (APESV; [3]): 80%
- herbicidal activity (SETFA): 80%

Compound: Cc1nn(C)c(Cl)c1C=C1C(=O)N(C)C(C)(Cc2ccccc2)C(=O)N1C (racemic) [I-15]
- herbicidal activity (SETVI): very good (a very good herbicidal activity is given at values of at least 85)
- herbicidal activity (CHEAL): very good (a very good herbicidal activity is given at values of at least 85)

Compound: CN1C(=O)C(C)(Cc2ccccc2)N(C)C(=O)C1=Cc1occc1Br (racemic) [I-11]
- herbicidal activity (MATIN [1]): very good (a very good herbicidal activity is given at values of at least 85)
- herbicidal activity (MATIN [2]): very good (a very good herbicidal activity is given at values of at least 85)
- herbicidal activity (AGSST): very good (a very good herbicidal activity is given at values of at least 85)
